Legend:
[1] = test system: co-culture of Gram-negative Kosakonia pseudosacchari strain JM-387 and Pseudomonas aylmerense strain S1E40; test: Desiccation resistance (viability, CFU) of a bacterial co-culture mixed with protectant agents; assay type: cell-based; settings: after 3, 5 and 7 days of desiccation stress, protectants at 1% (whole broth and cell pellet undiluted)
[2] = test system: rifampicin-resistant strain of a Gram-negative Kosakonia sp. bacterium; test: Desiccation resistance (viability, CFU) of Kosakonia sp. cells mixed with protectant agents and dried in 96-well plates; assay type: cell-based; settings: after 5 days and 7 days of desiccation stress; protectants at 1% or 0.5% (whole broth and cell pellet undiluted or 2x dilution)
Text: A rifampicin-resistant strain of a Gram-negative Kosakonia sp. bacterium was mixed with water (untreated control or “UTC”), trehalose, carboxymethylcellulose (“CMC”), methylcellulose (“MC”), extracellular polymeric substance from Parachlorella kessleri Accession No. NCMA 202103001 (“EPS”), sodium alginate (“Na-Alginate”), Parachlorella kessleri Accession No. NCMA 202103001 whole broth (“3001 Broth”), or Parachlorella kessleri Accession No. NCMA 202103001 cell pellet after centrifugation (“3001 Pellet”) in 96-well plates. Each of the protectant agents was added undiluted (i.e., at a 1× dilution) or at a 2× dilution (i.e., at […] to 1 part protectant) for whole broth and cell pellets or at a concentration of 1% (i.e., 1 g/100 mL) or 0.5% (i.e., 0.5 g/100 mL) for all other protectants. […]
The liquid medium in the plates was allowed to dry at room temperature inside a desiccation chamber for several days to create desiccation stress in the bacterial cell cultures. […] The bacterial cells were evaluated for survival and growth after 5 days of desiccation stress and after 7 days of desiccation stress.
The colony forming unit (CFU) data in these figures were generated by counting the number of colonies on each spot (see spots on representative plates shown in FIGS. 2A, 2B, and 2C) and using the following formula for quantifying viable cell density: […]

In the case of `OC[C@H]1O[C@H](O[C@H]2O[C@H](CO)[C@@H](O)[C@H](O)[C@H]2O)[C@H](O)[C@@H](O)[C@@H]1O` [Trehalose], the “protective effect on the Gram-negative bacterial cells (viability after desiccation stress)” value [1] is reported as “demonstrated a protective effect” and the “protective effect on the Kosakonia sp. cells (viability after desiccation stress)” value [2] is reported as “demonstrated a protective effect”.
